Reference: paper PMC12716025, “Plectranthus‐derived Abietanes as Protein Kinase C‐δ Activators: In Silico Design, Human Serum Albumin Interaction, and Stability Evaluation” (Chemistry & Biodiversity, 2025)

Target: T1, Human serum albumin (HSA) (Homo sapiens, UniProt P02768)
T1 construct: gene ALB; Essentially fatty acid-free HSA, type A1887 (Sigma-Aldrich)
Test: intrinsic tryptophan fluorescence quenching (binding constant Ka, […]°C), synchronous fluorescence, thermal shift (Tm +[…]°C)

T1 sequence (P02768 25-609): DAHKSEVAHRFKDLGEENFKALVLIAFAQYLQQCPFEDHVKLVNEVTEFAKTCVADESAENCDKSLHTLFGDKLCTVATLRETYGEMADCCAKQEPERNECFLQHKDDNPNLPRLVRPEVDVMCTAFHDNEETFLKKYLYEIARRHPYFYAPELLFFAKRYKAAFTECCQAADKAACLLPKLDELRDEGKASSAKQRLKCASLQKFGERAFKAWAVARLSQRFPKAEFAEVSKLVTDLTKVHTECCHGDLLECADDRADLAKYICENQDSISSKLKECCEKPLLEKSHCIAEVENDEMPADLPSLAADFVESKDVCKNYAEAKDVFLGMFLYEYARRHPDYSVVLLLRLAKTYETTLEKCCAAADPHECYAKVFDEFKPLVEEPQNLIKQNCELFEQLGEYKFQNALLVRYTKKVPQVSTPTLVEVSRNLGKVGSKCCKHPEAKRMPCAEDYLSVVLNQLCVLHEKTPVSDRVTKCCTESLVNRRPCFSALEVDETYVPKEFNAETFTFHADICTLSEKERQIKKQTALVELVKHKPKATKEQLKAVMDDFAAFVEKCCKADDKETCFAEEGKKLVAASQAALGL

For `CC(=O)O[C@H]1C2=C(C(=O)C(O)=C(C(C)C)C2=O)[C@@]2(C)CCCC(C)(C)[C@@H]2[C@@H]1O` [compound 1, 7α-acetoxy-6β-hydroxyroyleanone], the Kd was 15.4 µM.
